# From PubChem BioAssay (NCI)
#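 Interpolation was linear, between the two tested concentrations surrounding the appropriate level; five concentrations were tested over 48 hours in 96-well plates. Here, GI50 denotes the concentration required for 50% inhibition of growth. The concentration for full growth arrest is given as TGI.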
# Tests used:
# Assay in all cases: NCI anticancer screen, dose series, 48 h
# T-47D breast = tested on: T-47D breast
# SK-MEL-2 melanoma = tested on: SK-MEL-2 melanoma
# UACC-257 melanoma = tested on: UACC-257 melanoma
# SNB-75 CNS = tested on: SNB-75 CNS
# OVCAR-3 ovarian = tested on: OVCAR-3 ovarian
# COLO 205 colon = tested on: COLO 205 colon
# ACHN renal = tested on: ACHN renal
# U251 CNS = tested on: U251 CNS
# HCC-2998 colon = tested on: HCC-2998 colon
# LOX IMVI melanoma = tested on: LOX IMVI melanoma
# HOP-62 NSCLC = tested on: HOP-62 NSCLC
# SK-OV-3 ovarian = tested on: SK-OV-3 ovarian
# KM12 colon = tested on: KM12 colon
# NCI-H23 lung = tested on: NCI-H23 lung
# OVCAR-8 ovarian = tested on: OVCAR-8 ovarian
# HCT-116 colon = tested on: HCT-116 colon
# RXF 393 renal = tested on: RXF 393 renal
# CCRF-CEM leukemia = tested on: CCRF-CEM leukemia
# BT-549 breast = tested on: BT-549 breast
# EKVX NSCLC = tested on: EKVX NSCLC
# SNB-19 CNS = tested on: SNB-19 CNS
# HCT-15 colon = tested on: HCT-15 colon
# SK-MEL-5 melanoma = tested on: SK-MEL-5 melanoma
# NCI-H226 lung = tested on: NCI-H226 lung
# MCF7 breast = tested on: MCF7 breast
# SR leukemia = tested on: SR leukemia
# HOP-92 NSCLC = tested on: HOP-92 NSCLC
# NCI-H522 lung = tested on: NCI-H522 lung
# NCI/ADR-RES ovarian = tested on: NCI/ADR-RES ovarian
# NCI-H460 lung = tested on: NCI-H460 lung
# TK-10 renal = tested on: TK-10 renal
# MDA-MB-435 = tested on: MDA-MB-435
# IGROV1 ovarian = tested on: IGROV1 ovarian
# DU-145 prostate = tested on: DU-145 prostate
# OVCAR-4 ovarian = tested on: OVCAR-4 ovarian
# A498 renal = tested on: A498 renal
# SK-MEL-28 melanoma = tested on: SK-MEL-28 melanoma
# MALME-3M melanoma = tested on: MALME-3M melanoma
# PC-3 prostate = tested on: PC-3 prostate
# MDA-MB-231 breast = tested on: MDA-MB-231 breast
# SN12C renal = tested on: SN12C renal
# OVCAR-5 ovarian = tested on: OVCAR-5 ovarian
# CAKI-1 renal = tested on: CAKI-1 renal
# SF-268 CNS = tested on: SF-268 CNS
# HT29 colon = tested on: HT29 colon
# MOLT-4 leukemia = tested on: MOLT-4 leukemia
# SF-539 CNS = tested on: SF-539 CNS
# HS 578T breast = tested on: HS 578T breast
# SF-295 CNS = tested on: SF-295 CNS
# HL-60(TB) leukemia = tested on: HL-60(TB) leukemia
# UACC-62 melanoma = tested on: UACC-62 melanoma
# UO-31 renal = tested on: UO-31 renal
# RPMI-8226 leukemia = tested on: RPMI-8226 leukemia
# A549 NSCLC = tested on: A549 NSCLC
# M14 melanoma = tested on: M14 melanoma
# 786-0 renal = tested on: 786-0 renal
# SW-620 colon = tested on: SW-620 colon
smiles,measurement,setting,value
Cc1ccc2cc3c(N)c4c(C)ccc(C)c4nc3nc2c1,GI50,T-47D breast,2.14 µM
same,TGI,T-47D breast,6.1 µM
same,GI50,SK-MEL-2 melanoma,14 µM
same,TGI,SK-MEL-2 melanoma,29.3 µM
same,GI50,UACC-257 melanoma,14.2 µM
same,TGI,UACC-257 melanoma,28.6 µM
same,GI50,SNB-75 CNS,5.97 µM
same,TGI,SNB-75 CNS,20.7 µM
same,GI50,OVCAR-3 ovarian,6.12 µM
same,TGI,OVCAR-3 ovarian,21.1 µM
same,GI50,COLO 205 colon,5.77 µM
same,TGI,COLO 205 colon,20 µM
same,GI50,ACHN renal,2.68 µM
same,TGI,ACHN renal,13.2 µM
same,GI50,U251 CNS,4.58 µM
same,TGI,U251 CNS,18.1 µM
same,GI50,HCC-2998 colon,4.26 µM
same,TGI,HCC-2998 colon,14.8 µM
same,GI50,LOX IMVI melanoma,1.65 µM
same,TGI,LOX IMVI melanoma,3.4 µM
same,GI50,HOP-62 NSCLC,9.79 µM
same,TGI,HOP-62 NSCLC,25.5 µM
same,GI50,SK-OV-3 ovarian,11.4 µM
same,TGI,SK-OV-3 ovarian,24 µM
same,GI50,KM12 colon,2.12 µM
same,TGI,KM12 colon,16.9 µM
same,GI50,NCI-H23 lung,11.6 µM
same,TGI,NCI-H23 lung,28.6 µM
same,GI50,OVCAR-8 ovarian,5.64 µM
same,TGI,OVCAR-8 ovarian,23.5 µM
same,GI50,HCT-116 colon,1.68 µM
same,TGI,HCT-116 colon,3.27 µM
same,GI50,RXF 393 renal,1.8 µM
same,TGI,RXF 393 renal,3.62 µM
same,GI50,CCRF-CEM leukemia,4.04 µM
same,TGI,CCRF-CEM leukemia,36.8 µM
same,GI50,BT-549 breast,14.8 µM
same,TGI,BT-549 breast,29.7 µM
same,GI50,EKVX NSCLC,8.04 µM
same,TGI,EKVX NSCLC,21.4 µM
same,GI50,SNB-19 CNS,7.02 µM
same,TGI,SNB-19 CNS,23.8 µM
same,GI50,HCT-15 colon,1.33 µM
same,TGI,HCT-15 colon,10.3 µM
same,GI50,SK-MEL-5 melanoma,8.14 µM
same,TGI,SK-MEL-5 melanoma,21 µM
same,GI50,NCI-H226 lung,13.1 µM
same,TGI,NCI-H226 lung,29.5 µM
same,GI50,MCF7 breast,1.44 µM
same,TGI,MCF7 breast,2.98 µM
same,GI50,SR leukemia,2.3 µM
same,TGI,SR leukemia,7.33 µM
same,GI50,HOP-92 NSCLC,1.87 µM
same,TGI,HOP-92 NSCLC,16.5 µM
same,GI50,NCI-H522 lung,3.74 µM
same,TGI,NCI-H522 lung,20.7 µM
same,GI50,NCI/ADR-RES ovarian,2.95 µM
same,TGI,NCI/ADR-RES ovarian,16.7 µM
same,GI50,NCI-H460 lung,1.84 µM
same,TGI,NCI-H460 lung,3.77 µM
same,GI50,TK-10 renal,12.2 µM
same,TGI,TK-10 renal,25.5 µM
same,GI50,MDA-MB-435,10.9 µM
same,TGI,MDA-MB-435,23.4 µM
same,GI50,IGROV1 ovarian,6.73 µM
same,TGI,IGROV1 ovarian,22.3 µM
same,GI50,DU-145 prostate,5.82 µM
same,TGI,DU-145 prostate,18.6 µM
same,GI50,OVCAR-4 ovarian,3.79 µM
same,TGI,OVCAR-4 ovarian,14.8 µM
same,GI50,A498 renal,11.9 µM
same,TGI,A498 renal,25.1 µM
same,GI50,SK-MEL-28 melanoma,13.7 µM
same,TGI,SK-MEL-28 melanoma,28.5 µM
same,GI50,MALME-3M melanoma,17.7 µM
same,TGI,MALME-3M melanoma,36.1 µM
same,GI50,PC-3 prostate,6.89 µM
same,TGI,PC-3 prostate,21.6 µM
same,GI50,MDA-MB-231 breast,3.17 µM
same,TGI,MDA-MB-231 breast,20.4 µM
same,GI50,SN12C renal,6.75 µM
same,TGI,SN12C renal,21 µM
same,GI50,OVCAR-5 ovarian,1.99 µM
same,TGI,OVCAR-5 ovarian,5.05 µM
same,GI50,CAKI-1 renal,10.2 µM
same,TGI,CAKI-1 renal,22 µM
same,GI50,SF-268 CNS,11.8 µM
same,TGI,SF-268 CNS,25.8 µM
same,GI50,HT29 colon,2.89 µM
same,TGI,HT29 colon,12.9 µM
same,GI50,MOLT-4 leukemia,3.49 µM
same,TGI,MOLT-4 leukemia,21.7 µM
same,GI50,SF-539 CNS,7.97 µM
same,TGI,SF-539 CNS,23.1 µM
same,GI50,HS 578T breast,12.8 µM
same,TGI,HS 578T breast,34.5 µM
same,GI50,SF-295 CNS,1.66 µM
same,TGI,SF-295 CNS,3.05 µM
same,GI50,HL-60(TB) leukemia,18.7 µM
same,TGI,HL-60(TB) leukemia,40.8 µM
same,GI50,UACC-62 melanoma,7.72 µM
same,TGI,UACC-62 melanoma,22 µM
same,GI50,UO-31 renal,3.6 µM
same,TGI,UO-31 renal,19.6 µM
same,GI50,RPMI-8226 leukemia,2.02 µM
same,TGI,RPMI-8226 leukemia,5.27 µM
same,GI50,A549 NSCLC,1.85 µM
same,TGI,A549 NSCLC,3.44 µM
same,GI50,M14 melanoma,12.4 µM
same,TGI,M14 melanoma,26.7 µM
same,GI50,786-0 renal,6.72 µM
same,TGI,786-0 renal,20.5 µM
same,GI50,SW-620 colon,2.81 µM
same,TGI,SW-620 colon,15.3 µM
